Data: patent US20180317484A1 (priority 2017, published 2018)

System: Aspergillus flavus
Test: microbe, parasite or virus in culture
Assay type: cell-based

SMILES | effect on growth of the fungi, in words | inhibition at 50 µg/mL (Aspergillus flavus, 168 h, read-out: percentage of inhibition of growth of the fungi (Aspergillus flavus))
NC(=NO)c1ccc2nc(-c3ccco3)[nH]c2c1 [6-AFBD, 2-(2-Furyl) benzimidazole-6-carboxamidoxime] | does not inhibit the growth | 
O=C(O)c1ccc2nc(-c3ccco3)[nH]c2c1 [6-CAFBD, 2-(2-Furyl) benzimidazole-6-carboxylic acid] | does not inhibit the growth | 
O=[N+]([O-])c1ccc2nc(-c3ccco3)[nH]c2c1 [6-NFBD, 2-(2-Furyl)-6-nitrobenzimidazole] | does not inhibit the growth | 
c1coc(-c2nc3ccccc3[nH]2)c1 [FBD, 2-(2-Furyl)benzimidazole] |  | 100%
